{"source": "paper PMC6829886", "about": "“Inhibition of Non-Small Cell Lung Cancer Cells by Oxy210, an Oxysterol-Derivative that Antagonizes TGFβ and Hedgehog Signaling” (Cells, 2019)", "key": {"[1]": {"tested_on": "TGFβ induced activity of SBE-luciferase reporter", "assay": "SBE-luciferase (Smad response-element) reporter assay in NIH3T3-E1 cells", "format": "cell-based, mouse", "details": "48 hrs", "experimental": "NIH3T3-E1 cells cultured in 24 well-plates at 90% confluence were transiently transfected with 0.1 μg of Smad response-element reporter (SBE-Luciferase) plasmid (Qiagen), or with 0.1 μg of Gli response-element reporter (pGL3b-8xGli-Luciferase) plasmid, and 10 ng of pSV40-Renilla-Luciferase plasmid (Promega, Madison, WI, USA) with or without co-transfection with 10ng of Gli1 overexpression vector, pSRα-Gli1 using a Lipofectamine LTX Plus transfection reagent, as previously described [23]. […] 6 hrs after transfection, cells were treated with test agents for 72 h. […] Twenty-four hours after transfection, cells were treated with test agents for 20 h. Then the firefly and Renilla luciferase activities were measured using a dual luciferase kit (Promega) and a GloMax-96 Microplate Luminometer (Promega) or a plate reader-SpectraMax iD3 (Molecular Devices, San Jose, CA, USA). The firefly luciferase activities were normalized to the Renilla luciferase activities.\n(d) NIH3T3 cells cultured in 24 well-plates were transfected with a Smad response element reporter (SBE-Luciferase) plasmid and a pTK-Renilla-Luciferase plasmid. 6 hrs after transfection, cells were treated with the test agents as indicated for 48 hrs. Luciferase activity was measured and normalized to the Renilla luciferase activity."}, "[2]": {"tested_on": "GLI1, GLI2 mRNA in H2030 NSCLC cells", "assay": "GLI mRNA expression in H2030 cells (Q-RT-PCR)", "format": "cell-based, human", "details": "5 μM, 72 h", "method": "Total RNA was extracted with the RNeasy Plus Mini Kit from Qiagen (Hilden, Germany) according to the manufacturer’s instructions. One microgram of RNA was reverse-transcribed using an iScript Reverse Transcription Supermix from Bio-Rad Laboratories (Hercules, CA, USA) to make single-stranded cDNA. The cDNAs were then mixed with Qi SYBR Green Supermix (Bio-Rad) for quantitative RT-PCR assay using a Bio-Rad I-cycler IQ quantitative thermocycler. All PCR samples were prepared in triplicate wells in a 96-well plate. After 40 cycles of PCR, melt curves were examined in order to ensure primer specificity. Fold changes in gene expression were calculated using the ΔΔCt method. […]\nFigure 6 Inhibition of Glis and SHH expression in Non-Small Cell Lung Cancer (NSCLC) cells. A549 (a) and H2030 (b) cells were treated with Oxy210 in RPMI 1640 containing 5% FBS for 72 h, then RNA was extracted and analyzed by Q-RT-PCR for the expression of the indicated genes and normalized to GAPDH expression. […] After 48 h, RNA was extracted and analyzed by Q-RT-PCR for the expression of Gli1 and Shh and normalized to GAPDH expression. […]"}, "A549 cells": {"tested_on": "A549 cells", "assay": "TGFβ-induced EMT in A549 cells (morphology, Q-RT-PCR)", "format": "cell-based, human", "method": "Total RNA was extracted with the RNeasy Plus Mini Kit from Qiagen (Hilden, Germany) according to the manufacturer’s instructions. One microgram of RNA was reverse-transcribed using an iScript Reverse Transcription Supermix from Bio-Rad Laboratories (Hercules, CA, USA) to make single-stranded cDNA. The cDNAs were then mixed with Qi SYBR Green Supermix (Bio-Rad) for quantitative RT-PCR assay using a Bio-Rad I-cycler IQ quantitative thermocycler. All PCR samples were prepared in triplicate wells in a 96-well plate. After 40 cycles of PCR, melt curves were examined in order to ensure primer specificity. Fold changes in gene expression were calculated using the ΔΔCt method. Primers used for mouse were as follows: Oaz1 (5′-CCACTGCTTCGCCAGAGAG-3′) and (5′-CCCGGACCCAGGTTACTA-3′), Gli1 (5′- […]-3′ and 5′- GCT GATCCAGCCTAAGGTTCTC-3′), Ptch1 (5′-CCATCGGCGACAAGAACC-3′ and 5′-[…]-3′), Thbs1 (5′-[…]-3′ and 5′-CGGGGATCAGGTTGGCATT-3′), Cryab (5′-[…]-3′ and 5′-[…]-3′), Egr2 (5′-[…]-3′ and 5′-[…]-3′), CTGF (5′-GGGCCTCTTCTGCGATTTC-3′ and 5′-[…]-3′).\nPrimers used for human were as follows: GAPDH (5′- […]-3′ and 5′- […]-3′), SHH (5′- CGGAGCGAGGAAGGGAAAG-3′) and (5′- […]-3′), GLI1 (5′- GAAGCCGAGCCGAGTATC-3′ and 5′-[…]-3′), GLI2 (5′-[…]-3′ and 5′-[…]-3′), Fn-EDA (5′- […]-3′ and 5′- […]-3′), E-Cadherin (5′- […]-3′ and 5′- TCCCAGGCGTAGACCAAGA-3′), SNAIL (5′- […]-3′ and 5′- […]-3′), N-Cadherin (5′- […]-3′ and 5′- […]-3′), Vimentin (5′- […]-3′ and 5′- […]-3′), ZO-1 (5′- […]-3′ and 5′- […]-3′), MMP2 (5′- […]-3′ and 5′- […]-3′), MMP9 (5′-[…]-3′ and 5′-[…]).\nFigure 8 Inhibition of TGFβ-induced EMT in NSCLC cells. (a) A549 cells were treated with TGFβ in the absence or presence of Oxy210 in RPMI 1640 containing 2% FBS for 5 days. The cells were washed with PBS and then fixed with 2% formaldehyde in PBS at room temperature for 15 min. Formaldehyde was then removed, cells washed with PBS and stained with 4% Trypan Blue for 5 min. Phase contrast images were obtained using a 20X objective lens. A549 (b,c) and H2030 (d) cells were treated in RPMI 1640 containing 0.1% FBS overnight and then pretreated for 2 h with Oxy210 in RPMI 1640 containing 0.1% FBS. Next, cells were treated with TGFβ in the absence or presence of Oxy210. After 48 h, RNA was extracted and analyzed by Q-RT-PCR for the expression of the genes as indicated and normalized to GAPDH expression. Data from a representative experiment are reported as the mean of triplicate determinations ± SD (** p < 0.01 vs. TGFβ treated cells; ## p < 0.01 vs. control)."}}, "data": [{"smiles": "C[C@]12CC[C@H]3[C@@H](CC=C4C[C@@H](O)CC[C@@]43C)[C@@H]1CC[C@@H]2[C@](C)(O)CCc1cccnc1", "note": "[Oxy210, (3S,8S,9S,10R,13S,14S,17S)-17-((R)-2-hydroxy-4-(pyridin-3-yl)butan-2-yl)-10,13-dimethyl-2,3,4,7,8,9,10,11,12,13,14,15,16,17-tetradecahydro-1H-cyclopenta[a]phenanthren-3-ol]", "values": [{"measurement": "TGFβ induced activity of SBE-luciferase reporter", "setting": "[1]", "value": "significantly inhibited"}, {"measurement": "mRNA expression of GLI1 and GLI2", "setting": "[2]", "value": "significantly inhibited"}, {"measurement": "TGFβ-induced EMT morphology changes", "setting": "A549 cells", "value": "reversed"}, {"measurement": "expression of E-Cad downregulated by TGFβ", "setting": "A549 cells; 48 h", "value": "partially rescued"}, {"measurement": "expression of mesenchymal genes upregulated by TGFβ (SNAIL, ZO-1, Fn-EDA, N-Cad)", "setting": "A549 cells; 48 h", "value": "inhibited the expression of mesenchymal genes"}, {"measurement": "mRNA expression of MMP2 and MMP9 induced by TGFβ", "setting": "A549 cells; 48 h", "value": "inhibited the mRNA expression"}]}]}
